Results published in ChEMBL document CHEMBL1201862, “PubChem BioAssay data set” (2004).
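Compound exposure: 48 hours, 5 concentrations, 96-well plates. Abbreviation: GI50, concentration required for 50% inhibition of growth.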 The source made the active and inactive calls. Cut-off read from the data, not from the text of the source: active = GI50 up to about 1.1 µM and inactive = higher.

Legend:
Assay in all cases: inhibition of tumour cell growth, NCI panel, 48 h
[1] = tested on: A498
[2] = tested on: KM12
[3] = tested on: COLO 205
[4] = tested on: LOX IMVI
[5] = tested on: Hs-578T
[6] = tested on: A549
[7] = tested on: SF-295
[8] = tested on: OVCAR-4
[9] = tested on: SK-MEL-28
[10] = tested on: SF-539
[11] = tested on: RXF 393
[12] = tested on: MOLT-4
[13] = tested on: HOP-92
[14] = tested on: HT-29
[15] = tested on: UACC-62
[16] = tested on: SW-620
[17] = tested on: NCI-H226
[18] = tested on: T47D
[19] = tested on: TK-10
[20] = tested on: SNB-75

Measured: GI50

COC(=O)Nc1nc2ccc(S(=O)(=O)SC)cc2[nH]1
inactive: [1] 16.3 µM | [2] 5.45 µM | [3] 4.28 µM | [4] 4.78 µM | [5] 20.5 µM | [6] 8.11 µM | [7] 7.8 µM | [8] 11.9 µM | [9] 8.28 µM | [10] 4 µM | [11] 5.46 µM | [12] 2.89 µM | [13] 6.35 µM | [14] 3.28 µM | [15] 3.9 µM | [16] 3.73 µM | [17] 6.27 µM | [18] 9.55 µM | [19] 8.09 µM

CO/C=C(/C(=O)OC)[C@@H]1C[C@@H]1c1ccc2ccccc2c1
inactive: [1] 39.3 µM | [2] 21.7 µM | [3] 18.3 µM | [5] 31.8 µM | [6] 18.7 µM | [7] 37.2 µM | [8] 16.9 µM | [9] 23.4 µM | [10] 19.5 µM | [11] 44.1 µM | [12] 16.4 µM | [13] 19.8 µM | [14] 19.1 µM | [15] 32.5 µM | [17] 29.2 µM | [18] 20.9 µM | [19] 37.5 µM

CC1C(c2ccc(N(C)C)cc2)c2cc3c(cc2OC1N1CCCC1)OCO3 (stereo not drawn)
inactive: [1] 20.7 µM | [2] 47.2 µM | [3] 45 µM | [4] 38.2 µM | [5] 28.8 µM | [6] 45.3 µM | [7] 32.1 µM | [8] > 100 µM | [9] > 72.8 µM | [20] > 34.4 µM | [10] 21.7 µM | [11] 22.9 µM | [12] 48.8 µM | [13] 6.25 µM | [14] 32.5 µM | [15] 46.1 µM | [16] 42 µM | [18] 54.3 µM | [19] 98.6 µM

COc1ccc(CC2Cc3ccccc3CCN2)cc1OC (stereo not drawn)
inactive: [1] > 50 µM | [2] > 50 µM | [3] 11.3 µM | [4] 38.5 µM | [5] 23.8 µM | [6] 29.8 µM | [7] > 50 µM | [8] > 50 µM | [9] 19.3 µM | [20] 31.1 µM | [10] 37.8 µM | [11] 12 µM | [12] 20.3 µM | [13] 17.9 µM | [14] 13.8 µM | [15] > 50 µM | [16] > 50 µM | [17] 12.1 µM | [18] 46.5 µM

NC(Cc1cccc([N+](=O)[O-])c1)C(=O)O (stereo not drawn)
inactive: [1] > 100 µM | [2] > 100 µM | [3] > 100 µM | [4] > 100 µM | [5] > 100 µM | [6] > 100 µM | [7] > 100 µM | [8] > 100 µM | [9] > 100 µM | [10] > 100 µM | [11] > 100 µM | [12] > 100 µM | [13] 61.5 µM | [14] > 100 µM | [15] > 100 µM | [16] > 100 µM | [17] > 100 µM | [18] > 100 µM | [19] > 100 µM

NC(=O)C(=O)c1ncn(Cc2ccccc2)c1N
inactive: [1] > 100 µM | [2] > 100 µM | [3] > 100 µM | [4] 89.5 µM | [5] > 100 µM | [6] > 100 µM | [7] > 100 µM | [8] > 100 µM | [9] > 100 µM | [20] > 100 µM | [10] > 100 µM | [11] > 100 µM | [14] > 100 µM | [15] > 100 µM | [16] > 100 µM | [17] > 100 µM | [18] > 100 µM | [19] > 100 µM

Cc1ccc(/C=C2\Cc3cccc(C)c3C2=O)c(C(=O)O)c1
inactive: [1] > 100 µM | [2] 55.5 µM | [4] 64.4 µM | [5] > 100 µM | [6] 74.3 µM | [7] > 100 µM | [8] 21.1 µM | [9] 97.3 µM | [20] > 100 µM | [10] 74.8 µM | [11] 29.3 µM | [12] 48.2 µM | [13] 17.3 µM | [14] > 100 µM | [16] > 100 µM | [17] > 100 µM | [18] 42.7 µM | [19] > 100 µM

C/C(=C1\C(=O)C(c2ccccc2)N(c2ccccc2)C1=O)c1ccc(Cl)cc1 (stereo not drawn)
inactive: [1] 16.7 µM | [2] 22.2 µM | [3] 16.8 µM | [4] 14.9 µM | [5] 18.7 µM | [6] 18.2 µM | [7] 20 µM | [8] 21.5 µM | [9] 16.3 µM | [10] 21.3 µM | [11] 24 µM | [12] 31.6 µM | [13] 3.17 µM | [14] 17.4 µM | [15] 16.3 µM | [16] 22.8 µM | [17] 18.4 µM | [18] 19.4 µM | [19] 22 µM

O=C(c1ccc(Cl)cc1)N(C(=S)OCc1ccccn1)c1ccccc1
inactive: [1] > 100 µM | [2] > 100 µM | [3] > 100 µM | [4] 68.2 µM | [5] > 100 µM | [7] 76.6 µM | [9] > 100 µM | [10] 33 µM | [11] 23.5 µM | [12] 41.6 µM | [14] 55 µM | [15] > 100 µM | [16] 66.7 µM | [17] 33.7 µM | [18] 29.3 µM | [19] 88.1 µM

OCCN(CCO)c1ncnc2[nH]cnc12
inactive: [1] > 100 µM | [2] > 100 µM | [3] > 100 µM | [4] > 100 µM | [5] 53.6 µM | [6] > 100 µM | [7] > 100 µM | [8] > 100 µM | [9] > 100 µM | [11] > 100 µM | [12] > 100 µM | [13] > 100 µM | [14] > 100 µM | [15] > 100 µM | [16] > 100 µM | [17] > 100 µM | [18] > 100 µM | [19] 67.1 µM

c1ccc2c(CSCc3cccc4ccccc34)cccc2c1
inactive: [1] > 100 µM | [2] > 100 µM | [4] > 100 µM | [5] > 100 µM | [6] > 100 µM | [7] > 100 µM | [8] > 100 µM | [9] > 100 µM | [20] > 100 µM | [11] > 100 µM | [12] 34.5 µM | [13] > 100 µM | [14] 40.2 µM | [15] > 100 µM | [16] > 100 µM | [17] > 100 µM | [18] 53.6 µM | [19] > 100 µM

CCCCCC(=O)OCC1(CO)C/C(=C\CC(C(C)C)C(C)C)C(=O)O1 (stereo not drawn)
inactive: [1] 86.1 µM | [2] 39.6 µM | [3] 17.9 µM | [4] 27 µM | [5] 24.5 µM | [6] 76.9 µM | [7] 25.9 µM | [8] > 100 µM | [9] 59.3 µM | [20] 44.4 µM | [11] > 100 µM | [12] 17.9 µM | [13] 93.3 µM | [14] 30.7 µM | [15] > 100 µM | [16] 24.4 µM | [17] 65.5 µM | [18] > 100 µM | [19] > 100 µM

COC(=O)[C@@H](Nc1ccccc1)[C@@]1(C(=O)OC)SC12c1ccccc1-c1ccccc12
inactive: [1] > 100 µM | [2] > 100 µM | [3] > 100 µM | [4] 32.7 µM | [5] > 100 µM | [6] 44.8 µM | [7] > 100 µM | [8] 69.2 µM | [9] > 100 µM | [10] 45.8 µM | [11] 71.3 µM | [12] 24.4 µM | [13] 9.29 µM | [14] 34.3 µM | [15] 45.2 µM | [16] 38.3 µM | [17] > 100 µM | [18] 25.5 µM | [19] > 100 µM

CC1CCCN1CCCOC(=O)c1ccc(OC2C=CCCC2)cc1 (stereo not drawn)
inactive: [1] 67.1 µM | [2] 38.2 µM | [3] 16.6 µM | [4] 19.7 µM | [5] 32.4 µM | [6] 42.1 µM | [7] 16.5 µM | [8] 50 µM | [9] 54.7 µM | [20] 7.74 µM | [10] 25.6 µM | [11] 26.7 µM | [12] 25.1 µM | [14] 17.7 µM | [15] > 100 µM | [16] 20.7 µM | [17] 29.4 µM | [18] 13.5 µM | [19] 36.9 µM

O=C1CSC(c2ccccc2O)N1c1ccc2c(c1)Oc1c(Cl)c3c(c(Cl)c1=N2)Oc1cc(N2C(=O)CSC2c2ccccc2O)ccc1N=3 (stereo not drawn)
inactive: [1] > 100 µM | [2] 34.3 µM | [4] 42.1 µM | [5] 30.3 µM | [7] 42 µM | [8] 64.7 µM | [9] 81.5 µM | [10] 37.9 µM | [11] 17.1 µM | [12] 2.55 µM | [13] 17.1 µM | [14] 54.7 µM | [16] 27.4 µM | [17] 73.6 µM | [18] 37.4 µM | [19] 62.5 µM
